Test results published in US20200113902A1, “COMPOSITIONS AND METHODS FOR TREATING CANCERS WITH COVALENT INHIBITORS OF CYCLIN-DEPENDENT KINASE 7 (CDK7)” (Syros Pharmaceuticals, Inc., priority 2017, published 2020).

What was measured:
[1] = test system: HR^+ breast cancer cell lines; details: several HR^+ breast cancer cell lines; cited from earlier work
[2] = test system: gene expression in MDA-MB468 cells; assay: Gene expression profiling via RNA-seq (DESeq2, linear model), MDA-MB468; assay type: cell-based; details: four hours, JQ1 125 nM, Compound 1 25 nM
Protocol: (§1) In addition, we compared the ability of JQ1 alone, Compound 1 alone, and a combination of JQ1 and Compound 1 to modify expression of various genes in two breast cancer cell lines. Two triple-negative breast cancer cell lines (HCC70 and MDA-MB468) were tested. The cell lines were treated with JQ1, Compound 1, the JQ1/Compound 1 combination, or DMSO for four hours, after which gene expression profiling via RNA-seq was performed. JQ1 was administered to the cells at a 125 nM final concentration in both single agent and combination experiments. Compound 1 was administered to the cells at a 25 nM final concentration in both single agent and combination experiments. Each experiment was performed in triplicate. One replicate of MDA-MB-468 treated with single-agent JQ1 was excluded from further analysis due to quality.
(§2) We employed DESeq2 (Love et al., Genome Biology, 15(12):550, 2014) to identify changes in gene expression due to the JQ1, Compound 1, and JQ1-Compound 1 combination treatment compared to the control DMSO condition based on the RNA-seq data. Genes resulting in a p-value below 0.01 and an absolute logFoldChange above 0.5 were considered to be differentially expressed. […] The same is true for 1459 of 2414 genes in MDA-MB468.
(§3) To identify the genes whose expression is impacted synergistically by the drug combination, we modeled the effect of each drug treatment on expression using a linear model. The expression of each gene after the combination treatment can be thought of as the combined impact of Compound 1, JQ1, and any synergistic interaction between the drug treatments on baseline gene expression. A linear model used to describe this relationship could therefore be represented as:
(§4) Gene Expression after combination treatment=Baseline Expression+Compound 1 effect+JQ1 effect+Combination effect (Synergistic Impact)
(§5) By fitting the expression data for each gene using this model, we were able to evaluate the effect of each treatment, and identify cases where a synergistic interaction between Compound 1 and JQ1 impacts final gene expression. After fitting the linear model to each gene, the weight and p-value of each term can be evaluated. The combination term's weight signifies the mean change resulting from a synergetic impact on expression, with a negative weight indicating synergistic downregulation. Its associated p-value represents the probability that the combination term is not relevant to final gene expression. Using this approach, we identified 1806 genes in HCC70 and 2205 genes in MDA-MB468 whose expression change in the combination treatment was synergistic and whose associated p-value was less than a threshold cutoff of 0.01. The expression of these synergistic genes could not be explained by an additive effect of Compound 1 and JQ1 alone.

[3] = test system: gene expression in HCC70 cells; assay: Gene expression profiling via RNA-seq (DESeq2, linear model), HCC70; assay type: cell-based; details: four hours, JQ1 125 nM, Compound 1 25 nM
Protocol: as §1, §2, §3, §4, §5

| SMILES | In vitro synergy with fulvestrant [1] | Average Expression (TPM) FOXC1 ([2]; DMSO 33.731) [TPM] | Average Expression (TPM) GATA3 ([2]; DMSO 34.244) [TPM] | Average Expression (TPM) TGIF1 ([2]; DMSO 145.88) [TPM] | Average Expression (TPM) GATA3 ([3]; DMSO 32.685) [TPM] | Average Expression (TPM) FOXC1 ([3]; DMSO 40.481) [TPM] | Average Expression (TPM) TGIF1 ([3]; DMSO 62.523) [TPM] |
| --- | --- | --- | --- | --- | --- | --- | --- |
| CN(C)C/C=C/C(=O)Nc1ccc(C(=O)Nc2cccc(Nc3ncc(Cl)c(-c4c[nH]c5ccccc45)n3)c2)cc1 [THZ-1] | synergy | – | – | – | – | – | – |
| Cc1sc2c(c1C)C(c1ccc(Cl)cc1)=N[C@@H](CC(=O)OC(C)(C)C)c1nnc(C)n1-2 [JQ1, reference compound] | – | 37.112 | 32.491 | 151.60 | 29.574 | 40.529 | 52.509 |
